Test results as given in ChEMBL document CHEMBL1201862, “PubChem BioAssay data set” (2004).
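In this assay, cells in 96-well plates receive the compound at five concentrations for 48 hours. Endpoints are linearly interpolated between the surrounding concentrations. At the GI50, growth is halved.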 Calls of active or inactive are those of the source. Rule as the data show it: active = GI50 up to about 1.1 µM and inactive = higher.

Columns and labels:
Test in all cases: inhibition of tumour cell growth, NCI panel, 48 h
[1] = test system: IGROV-1
[2] = test system: SR
[3] = test system: UACC-62
[4] = test system: LOX IMVI
[5] = test system: K562
[6] = test system: OVCAR-5
[7] = test system: NCI-H522
[8] = test system: TK-10
[9] = test system: CAKI-1
[10] = test system: SF-539
[11] = test system: HCC 2998
[12] = test system: M14
[13] = test system: SF-268
[14] = test system: SK-OV-3
[15] = test system: OVCAR-8
[16] = test system: RPMI-8226
[17] = test system: SK-MEL-28
[18] = test system: RXF 393
[19] = test system: KM-20L2
[20] = test system: DMS-273

Row | Structure (SMILES) | GI50 [1] | GI50 [2] | GI50 [3] | GI50 [4] | GI50 [5] | GI50 [6] | GI50 [7] | GI50 [8] | GI50 [9] | GI50 [10] | GI50 [11] | GI50 [12] | GI50 [13] | GI50 [14] | GI50 [15] | GI50 [16] | GI50 [17] | GI50 [18] | GI50 [19] | GI50 [20]
1 | NC(Cc1ccc(OCc2ccccc2)cc1)C(=O)NC(Cc1ccccc1)C(=O)Oc1c(Cl)c(Cl)c(Cl)c(Cl)c1Cl (stereo not given) | 15.3 µM (inactive) | 54.1 µM (inactive) | 17 µM (inactive) | 14 µM (inactive) | 53.1 µM (inactive) | 15.6 µM (inactive) | 23.1 µM (inactive) | 15.3 µM (inactive) | 16.7 µM (inactive) | 16.7 µM (inactive) | 19.1 µM (inactive) | 14.2 µM (inactive) | 20.3 µM (inactive) | 14.7 µM (inactive) | 16.5 µM (inactive) | 40.9 µM (inactive) | 16.5 µM (inactive) | 15 µM (inactive) | – | –
2 | O=c1ccc2nc3cc(Br)ccc3sc-2c1 | > 100 µM (inactive) | 33 µM (inactive) | 30.9 µM (inactive) | – | 22.4 µM (inactive) | > 100 µM (inactive) | 56.8 µM (inactive) | > 100 µM (inactive) | 32.3 µM (inactive) | > 100 µM (inactive) | > 100 µM (inactive) | > 100 µM (inactive) | > 100 µM (inactive) | > 100 µM (inactive) | – | – | > 100 µM (inactive) | – | > 100 µM (inactive) | > 100 µM (inactive)
3 | CCCCC(=O)c1c(O)nc2sccn2c1=O | > 10 µM (inactive) | > 10 µM (inactive) | > 10 µM (inactive) | > 10 µM (inactive) | – | > 10 µM (inactive) | > 10 µM (inactive) | > 10 µM (inactive) | > 10 µM (inactive) | > 10 µM (inactive) | > 10 µM (inactive) | > 10 µM (inactive) | > 10 µM (inactive) | > 10 µM (inactive) | > 10 µM (inactive) | > 10 µM (inactive) | > 10 µM (inactive) | > 10 µM (inactive) | – | –
4 | COc1ccc(C2CC(c3c(O)ccc4ccccc34)=NN2)cc1OC (stereo not given) | 4.43 µM (inactive) | – | 3.29 µM (inactive) | – | 4.38 µM (inactive) | 3.9 µM (inactive) | 1.82 µM (inactive) | 3.91 µM (inactive) | 4.9 µM (inactive) | 4.27 µM (inactive) | 2.22 µM (inactive) | 4.1 µM (inactive) | 2.87 µM (inactive) | 7.94 µM (inactive) | 2.98 µM (inactive) | 8 µM (inactive) | 5.16 µM (inactive) | 7.6 µM (inactive) | – | –
5 | Cc1cccc(C(C)C)c1NC(=O)CC1Sc2ccccc2NC1=O (stereo not given) | > 100 µM (inactive) | 41 µM (inactive) | 44.4 µM (inactive) | 94.4 µM (inactive) | 33.1 µM (inactive) | > 100 µM (inactive) | 78.7 µM (inactive) | > 100 µM (inactive) | > 100 µM (inactive) | > 100 µM (inactive) | > 100 µM (inactive) | 50.1 µM (inactive) | 63 µM (inactive) | > 100 µM (inactive) | > 100 µM (inactive) | 57.4 µM (inactive) | 83.6 µM (inactive) | 87.3 µM (inactive) | > 100 µM (inactive) | 45.8 µM (inactive)
6 | CC(C)(C)[Si](C)(C)OCC1OC(n2cnc3c(N)ncnc32)CC1O (stereo not given) | 76.6 µM (inactive) | 34.8 µM (inactive) | 36.9 µM (inactive) | > 100 µM (inactive) | 21.8 µM (inactive) | 60.8 µM (inactive) | – | > 100 µM (inactive) | 86.9 µM (inactive) | – | – | 44.2 µM (inactive) | – | 81.5 µM (inactive) | 87.9 µM (inactive) | 52.8 µM (inactive) | > 100 µM (inactive) | 20.6 µM (inactive) | – | –
7 | [O-][n+]1c2c([n+]([O-])c3ccccc31)-c1cccc3cccc-2c13 | – | > 100 µM (inactive) | – | 63 µM (inactive) | > 100 µM (inactive) | – | 65.9 µM (inactive) | > 100 µM (inactive) | – | – | > 100 µM (inactive) | 48.1 µM (inactive) | 29 µM (inactive) | – | > 100 µM (inactive) | – | – | 21.2 µM (inactive) | – | –
8 | COC1CCC(O)C(CO)O1 (stereo not given) | 22.7 µM (inactive) | 45.3 µM (inactive) | > 100 µM (inactive) | 23.3 µM (inactive) | 11.2 µM (inactive) | > 100 µM (inactive) | 13.4 µM (inactive) | > 100 µM (inactive) | – | 41.2 µM (inactive) | > 100 µM (inactive) | 43.2 µM (inactive) | – | > 100 µM (inactive) | > 100 µM (inactive) | – | > 100 µM (inactive) | > 100 µM (inactive) | > 100 µM (inactive) | –
9 | CN(C)C(=O)OCOC(=O)N(C)C | > 100 µM (inactive) | – | > 100 µM (inactive) | > 100 µM (inactive) | > 100 µM (inactive) | > 100 µM (inactive) | > 100 µM (inactive) | – | > 100 µM (inactive) | > 100 µM (inactive) | > 91.8 µM (inactive) | – | > 100 µM (inactive) | > 100 µM (inactive) | > 100 µM (inactive) | > 100 µM (inactive) | > 100 µM (inactive) | > 100 µM (inactive) | > 100 µM (inactive) | > 100 µM (inactive)
10 | CC1(C)OC2CC(=O)OCC23C1CC(=O)C1(C)C3CCC2(C)C(c3ccoc3)OC(=O)C3OC321 (stereo not given) | > 125 µM (inactive) | – | > 125 µM (inactive) | > 125 µM (inactive) | 78.9 µM (inactive) | > 125 µM (inactive) | > 125 µM (inactive) | – | 16.1 µM (inactive) | > 117 µM (inactive) | > 125 µM (inactive) | – | > 125 µM (inactive) | > 125 µM (inactive) | 11.7 µM (inactive) | > 125 µM (inactive) | > 125 µM (inactive) | > 117 µM (inactive) | > 125 µM (inactive) | > 125 µM (inactive)
11 | O=C(O)C12CCCC(CCC1)C2 | > 100 µM (inactive) | – | > 100 µM (inactive) | > 100 µM (inactive) | > 100 µM (inactive) | > 100 µM (inactive) | > 100 µM (inactive) | > 100 µM (inactive) | > 100 µM (inactive) | > 100 µM (inactive) | – | > 100 µM (inactive) | > 100 µM (inactive) | > 100 µM (inactive) | > 100 µM (inactive) | > 100 µM (inactive) | > 100 µM (inactive) | > 100 µM (inactive) | – | > 100 µM (inactive)
12 | COc1cc(C2c3cc4c(cc3[C@@H](Nc3ccc5c(c3)OCO5)C3COC(=O)[C@H]23)OCO4)cc(OC)c1O (stereo not given in full) | 2.49 µM (inactive) | – | 0.322 µM (active) | 0.456 µM (active) | 0.721 µM (active) | 2.74 µM (inactive) | 1.06 µM (active) | – | 0.152 µM (active) | 0.324 µM (active) | 1.42 µM (inactive) | – | 0.953 µM (active) | 1.25 µM (inactive) | 1.38 µM (inactive) | 0.774 µM (active) | 3.43 µM (inactive) | 1.09 µM (active) | 2.24 µM (inactive) | 0.105 µM (active)
